For one experiment, the system named is NCI-H460. The experiment can be described thus: High-throughput calcein AM cytotoxicity assay, NCI-H460. The class given is cell-based, human. The conditions noted are these: read-out: IC50, NCI-H460. From the text: (§1) Standard errors are depicted with error bars.
The test system of another experiment is A549. In words: High-throughput calcein AM cytotoxicity assay, A549. The class given is cell-based, human. The conditions noted are these: read-out: IC50, A549.
Source text: as §1

The target in the next experiment is T1, Na+/K+-ATPase (Homo sapiens, UniProt P05023).
T1 construct: endogenous in cells; host or cells: HEK-293
In words: Non-radioactive rubidium ion uptake assay, HEK-293 cells. In kind it is cell-based. The conditions noted are these: read-out: Na+/K+-ATPase Inhibition IC50. As for the experimental part: Na/K-ATPase Assays. Inhibition of Na^+/K^+-ATPase on HEK-293 cells and CHO-K1 cells by the library hits was determined by Aurora Biomed, Inc. using a high-throughput non-radioactive rubidium ion uptake assay. Experiments were conducted in duplicate using three different concentrations. Within each experiment, percent inhibition values at the three concentrations were expressed as the percent reduction of the maximum absorption signal observed for a 0 nM control. IC50 values were determined using the following formula: IC50=[(50−low %)/(high %−low %)]×(high conc.−low conc.)+low conc.
To assess how these structural modifications impact the ability of library members to inhibit Na^+/K^+-ATPases, a fundamental activity of cardiac glycosides (Paula, S., et al., (2005) Biochemistry 44, 498-510), library hits 5β, 15β, 23β, 27β, 33β, 40β, and digitoxin (1) were submitted to a non-radioactive rubidium uptake assay to gauge Na^+/K^+-ATPase inhibition in both […] human embryonic kidney cells and CHO-K1 hamster ovary cells (Gill, S. et al., (2004) ASSAY and Drug Development Technologies 2, 535-542).

The next experiment concerns NCI/ADR-RES. In words: Cell titer-glo cytotoxicity assay, NCI/ADR-RES. The class given is cell-based, human. From the text:
FIG. 7 is a graphical summary of the results of the IC50 data from cytotoxicity assays. […] In the assay, live cells are quantified by measuring the luminescent signal resulting from the reaction between cellular ATP and luciferin to form oxyluciferin. The IC50 value for each compound represents at least four replicates of dose-response experiments conducted over six concentrations at two-fold dilutions.
The anticancer activities of ten panel analogues (3a-c,e,f and 4a-c,e,f) and digitoxin (1) were assessed using a high-throughput cytotoxicity assay on four human cancer cell lines, (FIG. 7) representing lung, colorectal, and ovarian carcinomas, as well as NCI/ADR-RES, a drug-resistant ovarian carcinoma line (For years, NCI/ADR-RES cells have been misidentified as drug-resistant MCF-7 breast adenocarcinoma cells, but recently this line has been shown definitively to be a drug-resistant line derived from OVCAR-8 ovarian adenocarcinoma cells. Liscovitch, M. et al., Cancer Lett. (2007) 245, 350-352.
All cell lines were maintained as previously reported (Langenhan, J. M. et al., Proc. Natl. Acad. Sci. (2005) 102, 12305-12310.) Cells were harvested by trypsinization using 0.25% trypsin and 0.1% EDTA and then counted in a Cellometer Auto T4 cell counter (Nexcelom, inc), before dilution for assay plating. Cell plating, compound handling and assay set up were performed as previously reported^1 except for the cells were plated in 50 μL volumes in 384 well clear bottom, tissue culture plates (Corning-Costar, Inc). Compounds were added from the 384-well compound stock plates at a 1:100 dilution using a Biomek FX liquid handler equipped with a 384 channel head (Beckman Coulter, Inc.). Cell titer-glo reagent (15 μL) (Promega Corporation, Inc.) was added and incubated for 10 min at room temperature with gentle agitation to lyse the cells. Each plate was read for luminescence. […] IC50 values were determined using XLFit 4.0 as previously reported (see Table 7).

Read-outs that look alike come from different tables or passages of the source. A value given as a limit tells only on which side of the number the result lay.

In the case of `CON([C@H]1CC[C@@]2(C)[C@H](CC[C@@H]3[C@@H]2CC[C@]2(C)[C@@H](C4=CC(=O)OC4)CC[C@]32O)C1)[C@H]1OC[C@H](O)[C@H](O)[C@@H]1O` [5β, L-riboside], the IC50 is 53 nM with NCI-H460 (NCI-H460 cells); 33 nM in the experiment with A549 (A549 cells); over 300000 nM on Na+/K+-ATPase; 45 nM in the experiment with NCI/ADR-RES (Cell titer-glo, read-out: IC50).
Regarding `CON([C@H]1CC[C@@]2(C)[C@H](CC[C@@H]3[C@@H]2CC[C@]2(C)[C@@H](C4=CC(=O)OC4)CC[C@]32O)C1)[C@@H]1O[C@H](CO)[C@@H](O)[C@H](O)[C@@H]1O` [27β, D-mannoside], the IC50 in the experiment with NCI-H460 (NCI-H460 cells) is 700 nM; in the experiment on A549 (A549 cells), 630 nM; on Na+/K+-ATPase, over 200000 nM.
As to `CON([C@H]1CC[C@@]2(C)[C@H](CC[C@@H]3[C@@H]2CC[C@]2(C)[C@@H](C4=CC(=O)OC4)CC[C@]32O)C1)[C@H]1OC[C@H](O)[C@@H](O)[C@@H]1O` [23β, L-xyloside], the IC50 was 80 nM in the experiment with NCI-H460 (NCI-H460 cells); 79 nM with A549 (A549 cells); over 300000 nM on Na+/K+-ATPase; 72 nM with NCI/ADR-RES (Cell titer-glo, read-out: IC50).
On to `C[C@H]1O[C@@H](O[C@H]2[C@@H](O)C[C@H](O[C@H]3[C@@H](O)C[C@H](O[C@H]4CC[C@@]5(C)[C@H](CC[C@@H]6[C@@H]5CC[C@]5(C)[C@@H](C7=CC(=O)OC7)CC[C@]65O)C4)O[C@@H]3C)O[C@@H]2C)C[C@H](O)[C@@H]1O` [digitoxin], for which the IC50 in the experiment on NCI-H460 (Homo sapiens, NCI-H460, NCI-H460 cells) is 280 nM; with A549 (Homo sapiens, A549, A549 cells), 280 nM; on Na+/K+-ATPase, 75400 ± 500 nM; in the experiment with NCI/ADR-RES (Homo sapiens), 69 nM.

These data come from patent US8507411B2, “Neoglycorandomization and digitoxin analogs” (priority 2004, dated 2013).
